{"source": "paper PMC6934184", "about": "“Selective DNA-PKcs inhibition extends the therapeutic index of localized radiotherapy and chemotherapy” (The Journal of Clinical Investigation, 2019)", "molecular_target": "T1, PRKD2 (PKD2) (Homo sapiens, UniProt Q9BZL6)", "T1 construct": "purchased Thermo Fisher Scientific (Life Technologies) SelectScreen", "T1 sequence (Q9BZL6 whole entry)": "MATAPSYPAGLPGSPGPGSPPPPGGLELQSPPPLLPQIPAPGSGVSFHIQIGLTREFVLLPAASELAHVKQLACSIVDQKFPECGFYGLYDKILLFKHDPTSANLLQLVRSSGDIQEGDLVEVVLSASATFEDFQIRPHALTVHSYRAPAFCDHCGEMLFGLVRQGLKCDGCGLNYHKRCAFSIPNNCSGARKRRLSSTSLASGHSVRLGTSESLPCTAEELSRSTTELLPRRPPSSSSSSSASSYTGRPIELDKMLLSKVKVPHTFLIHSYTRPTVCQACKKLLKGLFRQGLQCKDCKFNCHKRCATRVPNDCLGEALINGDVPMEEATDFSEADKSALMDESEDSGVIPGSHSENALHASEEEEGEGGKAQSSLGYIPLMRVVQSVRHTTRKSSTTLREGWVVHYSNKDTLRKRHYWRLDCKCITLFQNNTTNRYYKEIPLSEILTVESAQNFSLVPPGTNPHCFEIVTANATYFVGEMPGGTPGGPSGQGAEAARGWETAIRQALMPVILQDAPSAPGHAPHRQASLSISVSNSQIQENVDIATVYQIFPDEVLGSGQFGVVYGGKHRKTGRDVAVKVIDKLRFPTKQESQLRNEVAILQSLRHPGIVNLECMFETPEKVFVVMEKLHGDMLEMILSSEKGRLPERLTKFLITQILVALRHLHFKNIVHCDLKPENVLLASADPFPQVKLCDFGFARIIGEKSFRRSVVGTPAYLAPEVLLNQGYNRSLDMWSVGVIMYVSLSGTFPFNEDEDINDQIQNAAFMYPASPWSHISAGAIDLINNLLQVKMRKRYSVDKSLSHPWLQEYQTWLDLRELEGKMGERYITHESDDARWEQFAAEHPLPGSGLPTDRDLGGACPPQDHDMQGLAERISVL", "experiment": "SelectScreen Z'LYTE", "assay_type": "biochemical", "in_short": "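Percent values come from Thermo SelectScreen profiling of NU5455, combining activity and binding assays. CSF1R was run in Z'LYTE format at Km app ATP, and CAMK1 in Adapta format with ATP listed at 10.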", "data": [{"smiles": "CN(C(=O)CN1CCOCC1)c1ccc2sc3c(-c4cccc5c(=O)cc(N6CC7CCC(C6)O7)oc45)cccc3c2c1", "note": "[NU5455]", "values": [{"measurement": "inhibition at 1 µM", "value": -9.1, "unit": "%"}]}]}
